Measured values published in patent US10301295B2, “Herbicidal compounds” (Syngenta Participations AG, priority 2014, dated 2019).
Read-outs that look alike come from different tables or passages of the source.

Experiments:
Type in all cases: in vivo
[1] = test system: Alopecurus myosuroides (ALOMY); assay: Glasshouse assay for herbicidal activity, pre-/post-emergence (percentage phytotoxicity); settings: Alopecurus myosuroides, Rate 250 g/ha, 100%=total damage, 0%=no damage
Summary of the method: (§1)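 Test plants are sown in pots of standard soil, held one day for pre-emergence or about twelve days for post-emergence, then treated. They grow on under glasshouse control with twice-daily watering, and damage is rated by eye as a percentage at 15 (post) or 20 (pre) days after application.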

[2] = test system: Avena fatua (AVEFA); assay: as above; settings: Avena fatua, Rate 250 g/ha, 100%=total damage, 0%=no damage
Summary of the method: as §1

[3] = test system: Echinochloa crus-galli (ECHCG); assay: as above; settings: Echinochloa crus-galli, Rate 250 g/ha, 100%=total damage, 0%=no damage
Summary of the method: as §1

[4] = test system: Lolium perenne (LOLPE); assay: as above; settings: Lolium perenne, Rate 250 g/ha, 100%=total damage, 0%=no damage
Summary of the method: as §1

[5] = test system: wheat; assay: Post-emergence herbicidal activity against cereal crops (wheat) +/- safener, crop selectivity; settings: 100%=total damage to plant, 0%=no damage; for Post-emergence herbicidal activity against wheat (percentage phytotoxicity), +CQC: 250 g/ha, plus safener cloquintocet-mexyl (CQC) applied at 50 g/ha; for percent phytotoxicity (crop damage) to wheat at 250 g/ha: Triticum aestivum, 360 h, without safener, read-out: Post-emergence herbicidal activity against wheat (percentage phytotoxicity), Wheat - CQC
Experimental: Seeds of a variety of monocotyledonous and dicotyledonous test plants are sown in standard soil in pots. The plants are cultivated for one day (for pre-emergence) or for about 12 days (for post-emergence) under controlled conditions in a glasshouse (warm climate species at 24/18° C., cool climate species at 20/16° C., both at day/night; 16 hours light; 65% humidity). The test plants are then grown on, in a glasshouse (greenhouse) under controlled conditions (warm climate species at 24/18° C., cool climate species at 20/16° C., both at day/night; 16 hours light; 65% humidity) and are watered twice daily. 15 days after application of the test herbicide (15DAA) (for post-emergence), and 20 days after application of the test herbicide (20DAA) (for pre-emergence), the test plants are evaluated visually, and an assessed percentage phytotoxicity score is given for each herbicidal application on each plant species (with 100%=total damage to plant; 0%=no damage to plant).

[6] = 360 h, post-emergence, visual assessment 15 DAA, read-out: Post-emergence herbicidal activity (percentage phytotoxicity), ALOMY POST
[7] = 480 h, pre-emergence, visual assessment 20 DAA, read-out: Pre-emergence herbicidal activity (percentage phytotoxicity), ALOMY PRE
[8] = post-emergence, 360 h, post-emergence, visual assessment 15 DAA, read-out: Post-emergence herbicidal activity (percentage phytotoxicity), AVEFA POST
[9] = pre-emergence, 480 h, pre-emergence, visual assessment 20 DAA, read-out: Pre-emergence herbicidal activity (percentage phytotoxicity), AVEFA PRE
[10] = post-emergence, 360 h, post-emergence, visual assessment 15 DAA, read-out: Post-emergence herbicidal activity (percentage phytotoxicity), ECHCG POST
[11] = pre-emergence, 480 h, pre-emergence, visual assessment 20 DAA, read-out: Pre-emergence herbicidal activity (percentage phytotoxicity), ECHCG PRE
[12] = post-emergence, 360 h, post-emergence, visual assessment 15 DAA, read-out: Post-emergence herbicidal activity (percentage phytotoxicity), LOLPE POST
[13] = pre-emergence, 480 h, pre-emergence, visual assessment 20 DAA, read-out: Pre-emergence herbicidal activity (percentage phytotoxicity), LOLPE PRE

`Cc1cc(C)c(C2C(=O)CC(CCNc3ncc(C(F)(F)F)cc3Cl)C2=O)c(C)c1` (centres unmarked) [Compound A36] gave a pest or weed control at 250 g/ha [1, 6] of 90%, a pest or weed control at 250 g/ha [1, 7] of 60% and a pest or weed control at 250 g/ha [2, 8] of 100%. The pest or weed control at 250 g/ha [2, 9] was 90%, the pest or weed control at 250 g/ha [3, 10] was 90% and the pest or weed control at 250 g/ha [3, 11] was 90%. For the same molecule, the pest or weed control at 250 g/ha [4, 12] was 100%, the pest or weed control at 250 g/ha [4, 13] was 90% and the “Post-emergence herbicidal activity against wheat (percentage phytotoxicity), +CQC” value [5] was 10%. It also gave a percent phytotoxicity (crop damage) to wheat at 250 g/ha [5] of 80%.

Molecule `Cc1cc(-n2cc(Cl)cn2)cc(C)c1C1C(=O)CC(CCNS(=O)(=O)c2ccc(Cl)cc2)C1=O` (centres unmarked) [Compound A37] has a pest or weed control at 250 g/ha [1, 6] of 0%, a pest or weed control at 250 g/ha [1, 7] of 0% and a pest or weed control at 250 g/ha [2, 8] of 0%. For the same molecule, the pest or weed control at 250 g/ha [2, 9] was 0%, the pest or weed control at 250 g/ha [3, 10] was 30% and the pest or weed control at 250 g/ha [3, 11] was 0%. For the same molecule, the pest or weed control at 250 g/ha [4, 12] was 0%, the pest or weed control at 250 g/ha [4, 13] was 0% and the “Post-emergence herbicidal activity against wheat (percentage phytotoxicity), +CQC” value [5] was 10%. The percent phytotoxicity (crop damage) to wheat at 250 g/ha [5] was 20%.

With `CON=C(C)C(=O)NCCC1CC(=O)C(c2c(C)cc(-n3cc(Cl)cn3)cc2C)C1=O` (centres unmarked) [Compound A38] the pest or weed control at 250 g/ha [1, 6] was 70%, the pest or weed control at 250 g/ha [1, 7] was 70% and the pest or weed control at 250 g/ha [2, 8] was 80%. It also gave a pest or weed control at 250 g/ha [2, 9] of 70%, a pest or weed control at 250 g/ha [3, 10] of 100% and a pest or weed control at 250 g/ha [3, 11] of 100%. For the same molecule, the pest or weed control at 250 g/ha [4, 12] was 80%, the pest or weed control at 250 g/ha [4, 13] was 70% and the “Post-emergence herbicidal activity against wheat (percentage phytotoxicity), +CQC” value [5] was 30%. The percent phytotoxicity (crop damage) to wheat at 250 g/ha [5] was 70%.

In the case of `CON=C(C)C(=O)NCCC1CC(=O)C(c2c(C)cc(C)cc2C)C1=O` (centres unmarked) [Compound A39], the pest or weed control at 250 g/ha [1, 6] is reported as 80%, the pest or weed control at 250 g/ha [1, 7] is reported as 80% and the pest or weed control at 250 g/ha [2, 8] is reported as 80%. The pest or weed control at 250 g/ha [2, 9] was 50%, the pest or weed control at 250 g/ha [3, 10] was 50% and the pest or weed control at 250 g/ha [3, 11] was 30%. For the same molecule, the pest or weed control at 250 g/ha [4, 12] was 100%, the pest or weed control at 250 g/ha [4, 13] was 90% and the “Post-emergence herbicidal activity against wheat (percentage phytotoxicity), +CQC” value [5] was 10%. The percent phytotoxicity (crop damage) to wheat at 250 g/ha [5] was 60%.

`Cc1cc(C)c(C2C(=O)CC(CCNC(=O)C3=NOC(C)(C)C3)C2=O)c(C)c1` (centres unmarked) [Compound A40, N-[2-[2,4-dioxo-3-(2,4,6-trimethylphenyl)cyclopentyl]ethyl]-5,5-dimethyl-4H-isoxazole-3-carboxamide] gave a pest or weed control at 250 g/ha [1, 6] of 100%, a pest or weed control at 250 g/ha [1, 7] of 90% and a pest or weed control at 250 g/ha [2, 8] of 100%. The pest or weed control at 250 g/ha [2, 9] was 100%, the pest or weed control at 250 g/ha [3, 10] was 100% and the pest or weed control at 250 g/ha [3, 11] was 100%. For the same molecule, the pest or weed control at 250 g/ha [4, 12] was 90%, the pest or weed control at 250 g/ha [4, 13] was 100% and the “Post-emergence herbicidal activity against wheat (percentage phytotoxicity), +CQC” value [5] was 80%. For the same molecule, the percent phytotoxicity (crop damage) to wheat at 250 g/ha [5] was 90%.

In the case of `CC(=NOCc1ccccc1)C(=O)NCCC1CC(=O)C(c2c(C)cc(-n3cc(Cl)cn3)cc2C)C1=O` (centres unmarked) [Compound A41], the pest or weed control at 250 g/ha [1, 6] is reported as 60%, the pest or weed control at 250 g/ha [1, 7] is reported as 0% and the pest or weed control at 250 g/ha [2, 8] is reported as 20%. It also gave a pest or weed control at 250 g/ha [2, 9] of 0%, a pest or weed control at 250 g/ha [3, 10] of 60% and a pest or weed control at 250 g/ha [3, 11] of 0%. For the same molecule, the pest or weed control at 250 g/ha [4, 12] was 40%, the pest or weed control at 250 g/ha [4, 13] was 0% and the “Post-emergence herbicidal activity against wheat (percentage phytotoxicity), +CQC” value [5] was 20%. For the same molecule, the percent phytotoxicity (crop damage) to wheat at 250 g/ha [5] was 60%.

With `CON=C(C#N)C(=O)NCCC1CC(=O)C(c2c(C)cc(-n3cc(Cl)cn3)cc2C)C1=O` (centres unmarked) [Compound A42] the pest or weed control at 250 g/ha [1, 6] was 0%, the pest or weed control at 250 g/ha [1, 7] was 0% and the pest or weed control at 250 g/ha [2, 8] was 0%. The pest or weed control at 250 g/ha [2, 9] was 0%, the pest or weed control at 250 g/ha [3, 10] was 70% and the pest or weed control at 250 g/ha [3, 11] was 0%. For the same molecule, the pest or weed control at 250 g/ha [4, 12] was 10%, the pest or weed control at 250 g/ha [4, 13] was 0% and the “Post-emergence herbicidal activity against wheat (percentage phytotoxicity), +CQC” value [5] was 10%. It also gave a percent phytotoxicity (crop damage) to wheat at 250 g/ha [5] of 0%.

`Cc1cc(-n2cc(Cl)cn2)cc(C)c1C1C(=O)CC(CCNC(=O)C2=NOC(C)(C)C2)C1=O` (centres unmarked) [Compound A43] was tested, and the pest or weed control at 250 g/ha [1, 6] was 90%, the pest or weed control at 250 g/ha [1, 7] was 90% and the pest or weed control at 250 g/ha [2, 8] was 100%. It also gave a pest or weed control at 250 g/ha [2, 9] of 90%, a pest or weed control at 250 g/ha [3, 10] of 100% and a pest or weed control at 250 g/ha [3, 11] of 90%. For the same molecule, the pest or weed control at 250 g/ha [4, 12] was 100%, the pest or weed control at 250 g/ha [4, 13] was 90% and the “Post-emergence herbicidal activity against wheat (percentage phytotoxicity), +CQC” value [5] was 50%. The percent phytotoxicity (crop damage) to wheat at 250 g/ha [5] was 90%.
